Measured values as given in ChEMBL document CHEMBL1201862, “PubChem BioAssay data set” (2004).
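The compound was tested at five concentrations on cells cultured in 96-well plates, with a 48-hour exposure period. GI50 is the concentration that inhibits growth by half.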 Active and inactive are the calls of the source. Cut-off read from the data, not from the text of the source: active = GI50 up to about 1.1 µM and inactive = higher.

Assays:
Experiment in all cases: NCI anticancer screen, dose series, 48 h
A498 = test system: A498
HL-60 = test system: HL-60
A549 = test system: A549
UACC-62 = test system: UACC-62
OVCAR-4 = test system: OVCAR-4
HT-29 = test system: HT-29
NCI-H460 = test system: NCI-H460
K562 = test system: K562
SNB-19 = test system: SNB-19
OVCAR-8 = test system: OVCAR-8
RPMI-8226 = test system: RPMI-8226
NCI/ADR-RES = test system: NCI/ADR-RES
TK-10 = test system: TK-10
SK-OV-3 = test system: SK-OV-3
HCT-15 = test system: HCT-15
Malme-3M = test system: Malme-3M
SK-MEL-5 = test system: SK-MEL-5
PC-3 = test system: PC-3
MDA-MB-435 = test system: MDA-MB-435
ACHN = test system: ACHN
SF-539 = test system: SF-539
BT-549 = test system: BT-549
HCC 2998 = test system: HCC 2998
U-251 = test system: U-251
SR = test system: SR
SW-620 = test system: SW-620
NCI-H522 = test system: NCI-H522
MDA-MB-231 = test system: MDA-MB-231
SF-295 = test system: SF-295
COLO 205 = test system: COLO 205
HCT-116 = test system: HCT-116
SK-MEL-28 = test system: SK-MEL-28
HOP-62 = test system: HOP-62
M14 = test system: M14
SN12C = test system: SN12C
UACC-257 = test system: UACC-257
CAKI-1 = test system: CAKI-1
SK-MEL-2 = test system: SK-MEL-2
NCI-H23 = test system: NCI-H23
KM12 = test system: KM12
DU-145 = test system: DU-145
RXF 393 = test system: RXF 393
Hs-578T = test system: Hs-578T
786-0 = test system: 786-0
MDA-N = test system: MDA-N
MOLT-4 = test system: MOLT-4
MCF7 = test system: MCF7
OVCAR-5 = test system: OVCAR-5
IGROV-1 = test system: IGROV-1
SF-268 = test system: SF-268
UO-31 = test system: UO-31
LOX IMVI = test system: LOX IMVI
EKVX = test system: EKVX
CCRF-CEM = test system: CCRF-CEM
OVCAR-3 = test system: OVCAR-3
T47D = test system: T47D
SNB-75 = test system: SNB-75
NCI-H226 = test system: NCI-H226

## COC(=O)c1c(C)[n+]([O-])c2cc(Cl)c(Cl)cc2[n+]1[O-]
A498
  GI50: 10.2 µM (inactive)
HL-60
  GI50: 17.7 µM (inactive)
A549
  GI50: 8.07 µM (inactive)
UACC-62
  GI50: 15 µM (inactive)
OVCAR-4
  GI50: 19 µM (inactive)
HT-29
  GI50: 18.7 µM (inactive)
NCI-H460
  GI50: 5.38 µM (inactive)
K562
  GI50: 32.2 µM (inactive)
SNB-19
  GI50: 27.4 µM (inactive)
OVCAR-8
  GI50: 16.6 µM (inactive)
RPMI-8226
  GI50: 4.17 µM (inactive)
NCI/ADR-RES
  GI50: 13.9 µM (inactive)
TK-10
  GI50: 11.3 µM (inactive)
SK-OV-3
  GI50: 12.9 µM (inactive)
HCT-15
  GI50: 9.59 µM
Malme-3M
  GI50: 8.45 µM (inactive)
SK-MEL-5
  GI50: 8.71 µM (inactive)
PC-3
  GI50: 22.4 µM (inactive)
MDA-MB-435
  GI50: 18.6 µM (inactive)
ACHN
  GI50: 15.8 µM (inactive)
SF-539
  GI50: 18.9 µM (inactive)
BT-549
  GI50: 22.6 µM (inactive)
HCC 2998
  GI50: 16.1 µM (inactive)
U-251
  GI50: 16.5 µM (inactive)
SR
  GI50: 6.17 µM (inactive)
SW-620
  GI50: 18.3 µM (inactive)
NCI-H522
  GI50: 10.1 µM (inactive)
MDA-MB-231
  GI50: 19.4 µM (inactive)
SF-295
  GI50: 19.6 µM (inactive)
COLO 205
  GI50: 12.2 µM (inactive)
HCT-116
  GI50: 15.5 µM (inactive)
SK-MEL-28
  GI50: 27.4 µM (inactive)
HOP-62
  GI50: 26 µM (inactive)
M14
  GI50: 24.5 µM (inactive)
SN12C
  GI50: 18.2 µM (inactive)
UACC-257
  GI50: 17.1 µM (inactive)
CAKI-1
  GI50: 20.7 µM (inactive)
SK-MEL-2
  GI50: 19.4 µM (inactive)
NCI-H23
  GI50: 30.1 µM (inactive)
KM12
  GI50: 11.2 µM (inactive)
DU-145
  GI50: 12.5 µM (inactive)
RXF 393
  GI50: 32.9 µM (inactive)
Hs-578T
  GI50: 21.9 µM (inactive)
786-0
  GI50: 27.2 µM (inactive)
MDA-N
  GI50: 19.5 µM (inactive)
MOLT-4
  GI50: 12.6 µM (inactive)
MCF7
  GI50: 14.5 µM (inactive)
OVCAR-5
  GI50: 30.9 µM (inactive)
IGROV-1
  GI50: 4.39 µM (inactive)
SF-268
  GI50: 23.4 µM (inactive)
UO-31
  GI50: 15.8 µM (inactive)
LOX IMVI
  GI50: 8.65 µM (inactive)
EKVX
  GI50: 19.5 µM (inactive)
CCRF-CEM
  GI50: 10.4 µM (inactive)
OVCAR-3
  GI50: 16.6 µM (inactive)
T47D
  GI50: 15.8 µM (inactive)

## COC(=O)c1ccc(C)cc1CC1Cc2cc(C)ccc2C1=O (configuration not stated)
A498
  GI50: > 100 µM (inactive)
HL-60
  GI50: > 100 µM (inactive)
A549
  GI50: > 100 µM (inactive)
UACC-62
  GI50: > 100 µM (inactive)
OVCAR-4
  GI50: > 100 µM (inactive)
HT-29
  GI50: > 100 µM (inactive)
NCI-H460
  GI50: > 100 µM (inactive)
K562
  GI50: > 100 µM (inactive)
SNB-19
  GI50: > 100 µM (inactive)
OVCAR-8
  GI50: > 100 µM (inactive)
RPMI-8226
  GI50: > 100 µM (inactive)
NCI/ADR-RES
  GI50: > 100 µM (inactive)
TK-10
  GI50: > 100 µM (inactive)
SK-OV-3
  GI50: > 100 µM (inactive)
HCT-15
  GI50: > 100 µM
Malme-3M
  GI50: > 100 µM (inactive)
PC-3
  GI50: > 100 µM (inactive)
MDA-MB-435
  GI50: > 100 µM (inactive)
ACHN
  GI50: > 100 µM (inactive)
SF-539
  GI50: > 100 µM (inactive)
BT-549
  GI50: 94.2 µM (inactive)
HCC 2998
  GI50: > 100 µM (inactive)
U-251
  GI50: > 100 µM (inactive)
SR
  GI50: > 100 µM (inactive)
SW-620
  GI50: > 100 µM (inactive)
NCI-H522
  GI50: > 100 µM (inactive)
MDA-MB-231
  GI50: > 100 µM (inactive)
SF-295
  GI50: > 100 µM (inactive)
COLO 205
  GI50: > 100 µM (inactive)
HCT-116
  GI50: > 100 µM (inactive)
SK-MEL-28
  GI50: > 100 µM (inactive)
HOP-62
  GI50: > 100 µM (inactive)
M14
  GI50: > 100 µM (inactive)
SN12C
  GI50: > 100 µM (inactive)
UACC-257
  GI50: > 100 µM (inactive)
CAKI-1
  GI50: > 100 µM (inactive)
SK-MEL-2
  GI50: > 100 µM (inactive)
NCI-H23
  GI50: > 100 µM (inactive)
KM12
  GI50: > 100 µM (inactive)
DU-145
  GI50: > 10 µM (inactive)
Hs-578T
  GI50: > 100 µM (inactive)
786-0
  GI50: > 100 µM (inactive)
SNB-75
  GI50: > 100 µM (inactive)
MDA-N
  GI50: > 100 µM (inactive)
MOLT-4
  GI50: > 100 µM (inactive)
MCF7
  GI50: > 100 µM (inactive)
OVCAR-5
  GI50: > 100 µM (inactive)
IGROV-1
  GI50: > 100 µM (inactive)
SF-268
  GI50: > 100 µM (inactive)
UO-31
  GI50: > 100 µM (inactive)
LOX IMVI
  GI50: > 100 µM (inactive)
EKVX
  GI50: > 100 µM (inactive)
CCRF-CEM
  GI50: > 100 µM (inactive)
NCI-H226
  GI50: > 100 µM (inactive)
OVCAR-3
  GI50: > 100 µM (inactive)
T47D
  GI50: > 100 µM (inactive)
